Like-named read-outs stand apart in the source and are kept apart here.
Tested on: 80S14 (p21-deficient) cells
Experiment: Cytotoxicity assay using isogenic cell lines: IC50 in 80S14 (p21-deficient) cells, SRB
Assay type: cell-based, human
Experimental: Cytotoxicity Assay Using Isogenic Cell Lines: • 1. 80S14 (p21-deficient) cells were cultured in RPMI 1640 medium (Gibco/Invitrogen Life technologies) supplemented with 10% fetal bovine serum (FBS, Gibco) and 10 μg/ml gentamycin (Gibco). Cells were maintained at 37° C. under 7% CO2 • 2. Cells were plated at 6×10^4/ml (0.2 ml/well; 12,000 cells/well) in 96-well microtiter plates (Falcon or Corning/Costar) and incubated at 37° C. overnight (18-24 hours). • 3. 2-5 μl of the test agent [200 μg/ml stock in 20% DMSO/20 mM HEPES, pH 7.5 (Gibco)] was added to each well to achieve a final concentration of 2-5 μg/ml. Cells were incubated with the test compounds for 5 days at 37° C. • 4. Surviving cells were fixed with 50 μl 50% trichloroacetic acid (Sigma; 10% final concentration) for 1 hour at 4° C. • 5. Plates were rinsed twice with water (0.3 ml per wash using MRD8 robot), and allowed to dry. • 6. Sulforhodamine B (SRB) (Sigma; 0.4% in 1% acetic acid, 50 μl per well; MRD8 robot) was added and plates kept at room temperature for 10 minutes. • 7. Excess dye was removed by washing with 1% acetic acid (3 times, 0.3 ml per wash; MRD8 robot) and allowed to dry. • 8. The dye was solubilized in Tris base (Sigma; 10 mM, 150 μl per well). Plates were kept at room temperature for 30 minutes to allow the dye to diffuse. • 9. Absorbance was measured at 540 nm. • 10. The percentage of cells surviving drug treatment relative to control wells (no drug) was determined. • 11. The difference in % cell survival between the two cell lines was calculated. • 12. Compounds producing a difference score of >50 were considered to be selective for the p21-deficient cells and were evaluated further: Determination of selectivity of compounds for p21−/− cells: • 1. 80S14 cells were cultured as described above. • 2. Cells were seeded in 96-well microtiter plates at 12,000 cells/well (either 0.15 ml/well of 8×10^4 cells/ml suspension, or 0.2 ml/well of 6×10^4 cells/ml suspension). Plates were incubated at 37° C. overnight (18-24 hours). • 3. Serial dilutions of the test agent were added to each well. Dilutions were prepared either in 40% DMSO/20% methanol/20 mM HEPES, pH 7.5 (Gibco) or directly in growth medium. One of two dose ranges were used: 5 pM to 50 μM or 170 pg/ml to 10 μg/ml. Cells were incubated with the test compounds for 5 days at 37° C. • 4. Surviving cells were fixed with 50 μl 50% trichloroacetic acid (Sigma; 10% final concentration) for 1 hour at 4° C. • 5. Plates were rinsed extensively in water, and allowed to dry. • 6. Sulforhodamine B (Sigma; 0.4% in 1% acetic acid, 70 μl per well) was added and plates kept at room temperature for 10 minutes. • 7. Excess dye was removed by washing 5 times with 1% acetic acid and plates were allowed to dry. • 8. The dye was solubilized in Tris base (Sigma; 10 mM, 150 μl per well). Plates were placed on a titer plate shaker (Lab Line Instruments) for 5 minutes to allow the dye to diffuse. • 9. Absorbance was measured at 560 nm.
10. The drug concentration that inhibits cell proliferation by 50% relative to untreated controls (IC50) was determined from cytotoxicity curves.

[1] = Homo sapiens, 120 h, 80S14 p21-deficient cells, 5 days incubation, SRB, read-out: IC50 for 80SI4
[2] = 80S14 p21-deficient cells, 5 days incubation, SRB, read-out: IC50 for 80SI4
[3] = Homo sapiens, 120 h, 80S14 (p21-deficient) cells, 5 days, SRB, class symbols, read-out: IC50 for 80S14

Cc1cnc2c(C(=O)c3cccs3)cnn2c1-c1cccc(NC(=O)c2cccnc2)c1 [Example 220, N-{3-[6-methyl-3-(thien-2-ylcarbonyl)pyrazolo[1,5-a]pyrimidin-7-yl]phenyl}nicotinamide]
IC50 [1]: 10 to 50 µM

O=C(Cc1cccs1)Nc1cccc(-c2ccnc3c(C(=O)c4cccs4)cnn23)c1 [Example 66]
IC50 [2]: < 1 µM

C[C@H](N)C(=O)Nc1cccc(-c2ccnc3c(C(=O)c4cccs4)cnn23)c1 [Example 78, N-1-{3-[3-(thien-2-ylcarbonyl)pyrazolo[1,5-a]pyrimidin-7-yl]phenyl}-L-alaninamide]
IC50 [2]: 1 to 10 µM

CC(C)CC(=O)Nc1cccc(-c2ccnc3c(C(=O)C4CCCC4)cnn23)c1 [Example 296, N-{3-[3-(Cyclopentylcarbonyl)pyrazolo[1,5-a]pyrimidin-7-yl]phenyl}-3-methylbutanamide]
IC50 (Homo sapiens, 80S14, 120 h, read-out: IC50 for 80S14 (uM)): 1 to 10 µM

CN(C)CC(=O)Nc1cccc(-c2ccnc3c(C(=O)c4cccs4)cnn23)c1 [Example 64, N-2-N-2-dimethyl-N-1-{3-[3-(thien-2-ylcarbonyl)pyrazolo[1,5-a]pyrimidin-7-yl]phenyl}glycinamide]
IC50 [2]: 1 to 10 µM

Cc1ccc(OC(=O)Nc2cccc(-c3ccnc4c(C(=O)c5cccs5)cnn34)c2)cc1 [Example 23, 4-methylphenyl 3-[3-(thien-2-ylcarbonyl)pyrazolo[1,5-a]pyrimidin-7-yl]phenylcarbamate]
IC50 (Homo sapiens, 80S14, 120 h, read-out: IC50 for 80SI4 (uM)): 10 to 50 µM

COC(=O)CCC(=O)Nc1cccc(-c2ccnc3c(C(=O)c4cccs4)cnn23)c1 [Example 42, methyl 4-oxo-4-({3-[3-(thien-2-ylcarbonyl)pyrazolo[1,5-a]pyrimidin-7-yl]phenyl}amino)butanoate]
IC50 [1]: 10 to 50 µM

CC1CCC(OC(=O)Nc2cccc(-c3ccnc4c(C(=O)c5cccs5)cnn34)c2)C1 (centres unmarked) [Example 188, 3-methylcyclopentyl 3-[3-(thien-2-ylcarbonyl)pyrazolo[1,5-a]pyrimidin-7-yl]phenylcarbamate]
IC50 [1]: < 1 µM

1-Methyl-N-{3-[3-(thien-2-ylcarbonyl)pyrazolo[1,5-a]pyrimidin-7-yl]phenyl}piperidine-4-carboxaamide [Example 417]
IC50 (80S14 (p21-deficient) cells, 5 days, SRB, class symbols, read-out: IC50 for 80S14): 10 to 50 µM

CCN(C(=O)C1CC1)c1cccc(-c2ccnc3c(C(=O)c4ccco4)cnn23)c1 [Example 257, N-Ethyl-N-[3-[3-(2-furanylcarbonyl)pyrazolo[1,5-a]pyrimidin-7-yl]phenyl}-cyclopropanecarboxamide]
IC50 [3]: 10 to 50 µM

CCCCOC(=O)Nc1cccc(-c2c(C)cnc3c(C(=O)c4cccs4)cnn23)c1 [Example 209, butyl 3-[6-methyl-3-(thien-2-ylcarbonyl)pyrazolo[1,5-a]pyrimidin-7-yl]phenylcarbamate]
IC50 [1]: 10 to 50 µM

O=C(CNC(=O)C12CC3CC(CC(C3)C1)C2)Nc1cccc(-c2ccnc3c(C(=O)c4cccs4)cnn23)c1 [Example 134, N-[2-oxo-2-({3-[3-(thien-2-ylcarbonyl)pyrazolo[1,5-a]pyrimidin-7-yl]phenyl}amino)ethyl]adamantine-1-carboxamide]
IC50 [2]: 1 to 10 µM

CCCCOC(=O)NCC(=O)Nc1cccc(-c2ccnc3c(C(=O)c4cccs4)cnn23)c1 [Example 116, butyl 2-oxo-2-({3-[3-(thien-2-ylcarbonyl)pyrazolo[1,5-a]pyrimidin-7-yl]phenyl}amino)ethylcarbamate]
IC50 [1]: < 1 µM

C[C@H](NC(=O)Nc1cccc(-c2ccnc3c(C(=O)c4cccs4)cnn23)c1)c1ccccc1 [Example 11, N-[(1S)-1-phenylethyl]-N′-{3-[3-(thien-2-ylcarbon1)pyrazolo[1,5-a]pyrimidin-7-yl]phenyl}urea]
IC50 [2]: 1 to 10 µM

CCC(CC)OC(=O)Nc1cccc(-c2ccnc3c(C(=O)c4cccs4)cnn23)c1 [Example 186, 1-ethylpropyl 3-[3-(thien-2-ylcarbonyl)pyrazolo[1,5-a]pyrimidin-7-yl]phenylcarbamate]
IC50 [1]: < 1 µM

CCCCNC(=O)c1cccc(-c2ccnc3c(C(=O)c4cccs4)cnn23)c1 [Example 319, N-Butyl-3-[3-(2-thienylcarbonyl)pyrazolo[1,5-a]pyrimidin-7-yl]benzamide]
IC50 [3]: < 1 µM

NCCCC(=O)Nc1cccc(-c2ccnc3c(C(=O)c4cccs4)cnn23)c1 [Example 84, 4-amino-N-{3-[3-(thien-2-ylcarbonyl)pyrazolo[1,5-a]pyrimidin-7-yl]phenyl}butanamide]
IC50 [1]: 10 to 50 µM

CNc1cccc(-c2ccnc3c(C(=O)c4cccs4)cnn23)c1 [Example 266, [7-[3-(Methylamino)phenyl]pyrazolo[1,5-a]pyrimidin-3-yl]-2-thienyl-methanone]
IC50 [3]: 1 to 10 µM

C=CCNC(=O)Nc1cccc(-c2ccnc3c(C(=O)c4cccs4)cnn23)c1 [Example 7, N-allyl-N′-{3-[3-(thien-2-ylcarbonyl)pyrazolo[1,5-a]pyrimidin-7-yl]phenyl}urea]
IC50 [1]: < 1 µM

O=C(Cc1ccc(F)cc1)Nc1cccc(-c2ccnc3c(C(=O)c4cccs4)cnn23)c1 [Example 109, 2-(4-fluorophenyl)-N-{3-[3-(thien-2-ylcarbonyl)pyrazolo[1,5-a]pyrimidin-7-yl]phenyl}acetamide]
IC50 [1]: < 1 µM

CN(C(=O)C1CCC1)c1cccc(-c2ccnc3c(C#N)cnn23)c1 [Example 234, N-[3-(3-Cyanopyrazolo[1,5-a]-pyrimidin-7-yl)phenyl]-N-methyl-cyclobutanecarboxamide]
IC50 [3]: 1 to 10 µM

Cc1cnc2c(C(=O)c3cccs3)cnn2c1-c1cccc(NC(=O)c2ccccc2)c1 [Example 216, N-{3-[6-methyl-3-(thien-2-ylcarbonyl)pyrazolo[1,5-a]pyrimidin-7-yl]phenyl}benzamide]
IC50 [1]: 10 to 50 µM

CCCCCC/C(=C\c1ccccc1)CNc1cccc(-c2ccnc3c(C(=O)c4cccs4)cnn23)c1 [Example 409, [7-(3-{[(2E)-2-Hexyl-3-phenylprop-2-enyl]amino}phenyl)pyrazolo[1,5-a]pyrimidin-3-yl] (thien-2-yl)methanone]
IC50 [3]: 10 to 50 µM

CC(C)C(C)OC(=O)Nc1cccc(-c2ccnc3c(C(=O)c4cccs4)cnn23)c1 (centres unmarked) [Example 191, 1,2-dimethylpropyl 3-[3-(thien-2-ylcarbonyl)pyrazolo[1,5-a]pyrimidin-7-yl]phenylcarbamate]
IC50 [1]: < 1 µM

CC(C)C[C@H](N)C(=O)Nc1cccc(-c2ccnc3c(C(=O)c4cccs4)cnn23)c1 [Example 79, N-1-{3-[3-(thien-2-ylcarbonyl)pyrazolo[1,5-a]pyrimidin-7-yl]phenyl}-L-leucinamide]
IC50 [2]: 10 to 50 µM

O=C(c1cccs1)c1cnn2c(-c3cccc(NS(=O)(=O)c4ccc(F)cc4)c3)ccnc12 [Example 34, 4-fluoro-N-{3-[3-(thien-2-ylcarbonyl)pyrazolo[1,5-a]pyrimidin-7-yl]phenyl}benzenesulfonamide]
IC50 [1]: < 1 µM

O=C(Cc1ccc(Cl)cc1)Nc1cccc(-c2ccnc3c(C(=O)c4cccs4)cnn23)c1 [Example 108, 2-(4-chlorophenyl)-N-{3-[3-(thien-2-ylcarbonyl)pyrazolo[1,5-a]pyrimidin-7-yl]phenyl}acetamide]
IC50 [1]: < 1 µM

CC(C)=CC(=O)Nc1cccc(-c2ccnc3c(C(=O)c4cccs4)cnn23)c1 [Example 45, 3-methyl-N-{3-[3-(thien-2-ylcarbonyl)pyrazolo[1,5-a]pyrimidin-7-yl]phenyl}but-2-enamide]
IC50 [1]: < 1 µM

C=CC(=O)Nc1cccc(-c2ccnc3c(C(=O)c4cccs4)cnn23)c1 [Example 272, N-{3-[3-(2-Thienylcarbonyl)pyrazolo[1,5-a]pyrimidin-7-yl]phenyl}acrylamide]
IC50 [3]: < 1 µM

Source: US20060063784A1, “Method of using substituted pyrazolo [1,5-a] pyrimidines” (priority 2004, published 2006)
